Test results taken from US9833497B2, “Human originated EGF domain proteins and use of the same” (CHENGDU SOURCEBIO LIMITED-LIABILITY COMPANY, priority 2013, dated 2017).

Tests used:
Assay type in all cases: cell-based
Aeromonas hydrophila = assay: MIC against Gram-negative bacteria: Aeromonas hydrophila; conditions: for MIC (μg/mL) A. hydrophila / MIC A. hydrophila: 5×10^5 CFU/mL
Outline: (§1)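 Bacteria grown in LB at 37° C with shaking to McFarland 0.5, pelleted and resuspended in fresh LB, then seeded at 5×10^5 CFU/mL per well. Purified recombinant human EGF domain proteins were two-fold serially diluted in triplicate and plates shaken at 37° C, 175 rpm. MIC is the lowest protein concentration with no bacterial growth.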

Moraxella catarrhalis = assay: MIC against Gram-negative bacteria: Moraxella catarrhalis; conditions: for MIC (μg/mL) M. catarrhalis / MIC M. catarrhalis: 5×10^5 CFU/mL
Outline: as §1

Serratia marcescens = assay: MIC against Gram-negative bacteria: Serratia marcescens; conditions: for MIC (μg/mL) S. marcescens / MIC S. marcescens: 5×10^5 CFU/mL
Outline: as §1

Proteus vulgaris = assay: MIC against Gram-negative bacteria: Proteus vulgaris; conditions: for MIC (μg/mL) P. vulgaris / MIC P. vulgaris: 5×10^5 CFU/mL
Outline: as §1

Pseudomonas aeruginosa = assay: MIC against Gram-negative bacteria: Pseudomonas aeruginosa; conditions: for MIC (μg/mL) P. aeruginosa / MIC P. aeruginosa: 5×10^5 CFU/mL
Outline: as §1

E. coli DH5α = assay: Antibacterial activity: MIC and growth curve against E. coli DH5α in 96-well plate; conditions: minimal inhibitory concentration against E. coli DH5α; 96-well plate, 5×10^5 CFU/mL, 37° C., judged after 8 h
Outline: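 MIC taken as lowest protein level with no bacterial growth, tracked by A600 every 30 min during 37 °C, 175 rpm culture. Two-fold protein series 50-12.5 μg/mL final, triplicate wells, against 5×10^5 CFU/mL of LB-washed mid-log cells.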

Enterobacter cloacae = assay: MIC against Gram-negative bacteria: Enterobacter cloacae; conditions: for MIC (μg/mL) E. cloacae / MIC E. cloacae: 5×10^5 CFU/mL
Outline: as §1

Klebsiella pneumonia = assay: MIC against Gram-negative bacteria: Klebsiella pneumonia; conditions: for MIC (μg/mL) K. pneumonia / MIC K. pneumonia: 5×10^5 CFU/mL
Outline: as §1

E. coli BL21 = assay: MIC against Gram-negative bacteria: E. coli BL21; conditions: for MIC (μg/mL) E. coli BL21 / MIC E. coli BL21: 5×10^5 CFU/mL
Outline: as §1

Citrobacter diversus = assay: MIC against Gram-negative bacteria: Citrobacter diversus; conditions: for MIC (μg/mL) C. diversus / MIC C. diversus: 5×10^5 CFU/mL
Outline: as §1

Proteus mirabilis = assay: MIC against Gram-negative bacteria: Proteus mirabilis; conditions: for MIC (μg/mL) P. mirabilis / MIC P. mirabilis: 5×10^5 CFU/mL
Outline: as §1

[1] = A. hydrophila, 10 h cultivation at 37° C.
[2] = M. catarrhalis, 10 h cultivation at 37° C.
[3] = S. marcescens, 10 h cultivation at 37° C.
[4] = P. vulgaris, 10 h cultivation at 37° C.
[5] = P. aeruginosa, 10 h cultivation at 37° C.
[6] = E. cloacae, 10 h cultivation at 37° C.
[7] = K. pneumonia, 10 h cultivation at 37° C.
[8] = E. coli BL21, 10 h cultivation at 37° C.
[9] = C. diversus, 10 h cultivation at 37° C.
[10] = P. mirabilis, 10 h cultivation at 37° C.
[11] = Aeromonas hydrophila, 96-well plate, 37° C., 10 h
[12] = Moraxella catarrhalis, 96-well plate, 37° C., 10 h
[13] = Serratia marcescens, 96-well plate, 37° C., 10 h
[14] = Proteus vulgaris, 96-well plate, 37° C., 10 h
[15] = Pseudomonas aeruginosa, 96-well plate, 37° C., 10 h
[16] = Enterobacter cloacae, 96-well plate, 37° C., 10 h
[17] = Klebsiella pneumonia, 96-well plate, 37° C., 10 h
[18] = E. coli BL21, 96-well plate, 37° C., 10 h
[19] = Citrobacter diversus, 96-well plate, 37° C., 10 h
[20] = Proteus mirabilis, 96-well plate, 37° C., 10 h
[21] = 10 h cultivation at 37° C., two-fold serial dilution

Question: What does the source list for “PRT922 (LQCRDGYEPCVNEGMCVTYHNGTGYCKCPEGFLGEYCQ; listed as Homo sapiens)”?
Answer: MIC (Aeromonas hydrophila; [1]): 25 µg/mL; MIC (Moraxella catarrhalis; [2]): 25 µg/mL; MIC (Serratia marcescens; [3]): 12.5 µg/mL; MIC (Proteus vulgaris; [4]): 25 µg/mL; MIC (Pseudomonas aeruginosa; [5]): 12.5 µg/mL; MIC (E. coli DH5α): 12.5 µg/mL; MIC (Enterobacter cloacae; [6]): 25 µg/mL; MIC (Klebsiella pneumonia; [7]): 12.5 µg/mL; MIC (E. coli BL21; [8]): 25 µg/mL; MIC (Citrobacter diversus; [9]): 25 µg/mL; MIC (Proteus mirabilis; [10]): 50 µg/mL

Question: For “PRT118 (DVDECVGPGGPLCDSLCFNTQGSFHCGCLPGWVLAPNGVSCT; listed as Homo sapiens)”, which “MIC (μg/mL) A. hydrophila” value (Aeromonas hydrophila; [11]) is on record?
Answer: The value was 12.5 µg/mL.

Question: What about the “MIC (μg/mL) M. catarrhalis” value (Moraxella catarrhalis; [12]) of the same substance?
Answer: Its value is 25 µg/mL.

Question: What about the “MIC (μg/mL) S. marcescens” value (Serratia marcescens; [13]) of the same substance?
Answer: Its value is 12.5 µg/mL.

Question: What about the “MIC (μg/mL) P. vulgaris” value (Proteus vulgaris; [14]) of the same substance?
Answer: The value was 25 µg/mL.

Question: What about the “MIC (μg/mL) P. aeruginosa” value (Pseudomonas aeruginosa; [15]) of the same substance?
Answer: Its value is 12.5 µg/mL.

Question: And the MIC (E. coli DH5α)?
Answer: The MIC was 12.5 µg/mL.

Question: And the “MIC (μg/mL) E. cloacae” value (Enterobacter cloacae; [16])?
Answer: The value was 12.5 µg/mL.

Question: And the “MIC (μg/mL) K. pneumonia” value (Klebsiella pneumonia; [17])?
Answer: The value was 12.5 µg/mL.

Question: What about the “MIC (μg/mL) E. coli BL21” value (E. coli BL21; [18]) of the same substance?
Answer: The value was 12.5 µg/mL.

Question: What about the “MIC (μg/mL) C. diversus” value (Citrobacter diversus; [19]) of the same substance?
Answer: Its value is 12.5 µg/mL.

Question: And the “MIC (μg/mL) P. mirabilis” value (Proteus mirabilis; [20])?
Answer: Its value is 12.5 µg/mL.

Question: Which “MIC (μg/mL) A. hydrophila” value (Aeromonas hydrophila; [1]) does the source give for “PRT876 (TAKPCLSNPCKNNGMCRDGWNRYVCDCSGTGYLGRSCE; listed as Homo sapiens)” here?
Answer: Its value is 12.5 µg/mL.

Question: And the “MIC (μg/mL) M. catarrhalis” value (Moraxella catarrhalis; [2])?
Answer: Its value is 12.5 µg/mL.

Question: What about the “MIC (μg/mL) S. marcescens” value (Serratia marcescens; [3]) of the same substance?
Answer: Its value is 25 µg/mL.

Question: What about the “MIC (μg/mL) P. vulgaris” value (Proteus vulgaris; [4]) of the same substance?
Answer: The value was 25 µg/mL.

Question: What about the “MIC (μg/mL) P. aeruginosa” value (Pseudomonas aeruginosa; [5]) of the same substance?
Answer: The value was 12.5 µg/mL.

Question: And the MIC (E. coli DH5α)?
Answer: The MIC was 12.5 µg/mL.

Question: What about the “MIC (μg/mL) E. cloacae” value (Enterobacter cloacae; [6]) of the same substance?
Answer: Its value is 25 µg/mL.

Question: And the “MIC (μg/mL) K. pneumonia” value (Klebsiella pneumonia; [7])?
Answer: The value was 12.5 µg/mL.

Question: And the “MIC (μg/mL) E. coli BL21” value (E. coli BL21; [8])?
Answer: The value was 12.5 µg/mL.

Question: And the “MIC (μg/mL) C. diversus” value (Citrobacter diversus; [9])?
Answer: The value was 25 µg/mL.

Question: What about the “MIC (μg/mL) P. mirabilis” value (Proteus mirabilis; [10]) of the same substance?
Answer: The value was 25 µg/mL.

Question: What does the source list for “PRT230 (DVDECADPRACPEHATCNNTVGNYSCFCNPGFESSSGHLSFQGLKASCE; listed as Homo sapiens)”?
Answer: MIC (μg/mL) A. hydrophila (Aeromonas hydrophila; [1]): 12.5 µg/mL; MIC (μg/mL) M. catarrhalis (Moraxella catarrhalis; [2]): 12.5 µg/mL; MIC (μg/mL) S. marcescens (Serratia marcescens; [3]): 50 µg/mL; MIC (μg/mL) P. vulgaris (Proteus vulgaris; [4]): 12.5 µg/mL; MIC (μg/mL) P. aeruginosa (Pseudomonas aeruginosa; [5]): 25 µg/mL; MIC (E. coli DH5α): 25 µg/mL; MIC (μg/mL) E. cloacae (Enterobacter cloacae; [6]): 25 µg/mL; MIC (μg/mL) K. pneumonia (Klebsiella pneumonia; [7]): 12.5 µg/mL; MIC (μg/mL) E. coli BL21 (E. coli BL21; [8]): 12.5 µg/mL; MIC (μg/mL) C. diversus (Citrobacter diversus; [9]): 25 µg/mL; MIC (μg/mL) P. mirabilis (Proteus mirabilis; [10]): 50 µg/mL

Question: What does the source list for “PRT696 (DVDECTQSPGLCGRGACKNLPGSFRCVCPAGFRGSACE; listed as Homo sapiens)”?
Answer: MIC A. hydrophila (Aeromonas hydrophila; 96-well plate, 37° C., 10 h): 12.5 µg/mL; MIC M. catarrhalis (Moraxella catarrhalis; 96-well plate, 37° C., 10 h): 25 µg/mL; MIC S. marcescens (Serratia marcescens; 96-well plate, 37° C., 10 h): 12.5 µg/mL; MIC P. vulgaris (Proteus vulgaris; 96-well plate, 37° C., 10 h): 25 µg/mL; MIC P. aeruginosa (Pseudomonas aeruginosa; 96-well plate, 37° C., 10 h): 12.5 µg/mL; MIC (E. coli DH5α): 50 µg/mL; MIC E. cloacae (Enterobacter cloacae; 96-well plate, 37° C., 10 h): 25 µg/mL; MIC K. pneumonia (Klebsiella pneumonia; 96-well plate, 37° C., 10 h): 50 µg/mL; MIC E. coli BL21 (E. coli BL21; 96-well plate, 37° C., 10 h): 25 µg/mL; MIC C. diversus (Citrobacter diversus; 96-well plate, 37° C., 10 h): 25 µg/mL; MIC P. mirabilis (Proteus mirabilis; 96-well plate, 37° C., 10 h): 50 µg/mL

Question: How did the “MIC A. hydrophila” value (Aeromonas hydrophila; [21]) turn out when “PRT1062 (LQGNCSRLGCQHHCVPTLDGPTCYCNSSFQLQADGKTCK; listed as Homo sapiens)” was run?
Answer: The value was 25 µg/mL.

Question: And the “MIC M. catarrhalis” value (Moraxella catarrhalis; [21])?
Answer: The value was 25 µg/mL.

Question: And the “MIC S. marcescens” value (Serratia marcescens; [21])?
Answer: The value was 50 µg/mL.

Question: What about the “MIC P. vulgaris” value (Proteus vulgaris; [21]) of the same substance?
Answer: The value was 25 µg/mL.

Question: And the “MIC P. aeruginosa” value (Pseudomonas aeruginosa; [21])?
Answer: Its value is 25 µg/mL.

Question: What about the MIC (E. coli DH5α) of the same substance?
Answer: The MIC was 25 µg/mL.

Question: What about the “MIC E. cloacae” value (Enterobacter cloacae; [21]) of the same substance?
Answer: Its value is 25 µg/mL.

Question: What about the “MIC K. pneumonia” value (Klebsiella pneumonia; [21]) of the same substance?
Answer: Its value is 12.5 µg/mL.

Question: And the “MIC E. coli BL21” value (E. coli BL21; [21])?
Answer: Its value is 50 µg/mL.

Question: And the “MIC C. diversus” value (Citrobacter diversus; [21])?
Answer: The value was 50 µg/mL.

Question: What about the “MIC P. mirabilis” value (Proteus mirabilis; [21]) of the same substance?
Answer: Its value is 12.5 µg/mL.

Question: Which results are given for “PRT114 (PKYGCNFNNGGCHQDCFEGGDGSFLCGCRPGFRLLDDLVTCA; listed as Homo sapiens)”?
Answer: MIC (μg/mL) A. hydrophila (Aeromonas hydrophila; [11]): 25 µg/mL; MIC (μg/mL) M. catarrhalis (Moraxella catarrhalis; [12]): 12.5 µg/mL; MIC (μg/mL) S. marcescens (Serratia marcescens; [13]): 12.5 µg/mL; MIC (μg/mL) P. vulgaris (Proteus vulgaris; [14]): 12.5 µg/mL; MIC (μg/mL) P. aeruginosa (Pseudomonas aeruginosa; [15]): 12.5 µg/mL; MIC (E. coli DH5α): 12.5 µg/mL; MIC (μg/mL) E. cloacae (Enterobacter cloacae; [16]): 12.5 µg/mL; MIC (μg/mL) K. pneumonia (Klebsiella pneumonia; [17]): 25 µg/mL; MIC (μg/mL) E. coli BL21 (E. coli BL21; [18]): 12.5 µg/mL; MIC (μg/mL) C. diversus (Citrobacter diversus; [19]): 12.5 µg/mL; MIC (μg/mL) P. mirabilis (Proteus mirabilis; [20]): 12.5 µg/mL
